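Step 1: Grow cells in 96-well plates. Step 2: Expose to compound for 48 hours at 5 concentrations. Step 3: Interpolate endpoints linearly; if unreached, use highest concentration. At the GI50, growth is halved.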 The source made the active and inactive calls. No stated cut-off is given here; in the data, active = GI50 up to about 1.1 µM and inactive = higher.
Key:
Test in all cases: NCI tumour cell line growth inhibition, 48 h
[1] = system: A549
[2] = system: COLO 205
[3] = system: DLD-1
[4] = system: DMS-273
[5] = system: DU-145
[6] = system: EKVX
[7] = system: HOP-62
[8] = system: HT-29
[9] = system: IGROV-1
[10] = system: M19-MEL
[11] = system: MDA-N
[12] = system: NCI-H460
[13] = system: OVCAR-5
[14] = system: PC-3
[15] = system: RXF 393
[16] = system: SK-MEL-2
[17] = system: SN12C
[18] = system: SNB-75
[19] = system: T47D
[20] = system: U-251

SMILES	GI50 [1]	GI50 [2]	GI50 [3]	GI50 [4]	GI50 [5]	GI50 [6]	GI50 [7]	GI50 [8]	GI50 [9]	GI50 [10]	GI50 [11]	GI50 [12]	GI50 [13]	GI50 [14]	GI50 [15]	GI50 [16]	GI50 [17]	GI50 [18]	GI50 [19]	GI50 [20]
CS(=O)(=O)OCCN(CCOS(C)(=O)=O)c1ccc(C=O)cc1	2.89 µM (inactive)	1.81 µM (inactive)	18.5 µM (inactive)	0.314 µM (active)	0.505 µM (active)	7.05 µM (inactive)	1.43 µM (inactive)	3.96 µM (inactive)	12.8 µM (inactive)	12.6 µM (inactive)	8.95 µM (inactive)	0.0518 µM (active)	3.5 µM (inactive)	19.4 µM (inactive)	0.432 µM (active)	17.1 µM (inactive)	3.68 µM (inactive)	1.87 µM (inactive)	5.92 µM (inactive)	8.07 µM (inactive)
COC(=O)C(=O)C(C(=O)C(=O)Nc1ccc(Cl)cc1C)c1nc2ccc(C(=O)c3ccccc3)cc2nc1O (stereo not drawn)	> 100 µM (inactive)	> 100 µM (inactive)	55.8 µM (inactive)	63.4 µM (inactive)	–	> 100 µM (inactive)	> 100 µM (inactive)	> 100 µM (inactive)	> 100 µM (inactive)	> 100 µM (inactive)	–	> 100 µM (inactive)	83 µM (inactive)	–	52.2 µM (inactive)	> 100 µM (inactive)	> 100 µM (inactive)	31.5 µM (inactive)	–	> 100 µM (inactive)
Cc1nc2nn(Cc3ccccc3)cc2c(=O)o1	> 100 µM (inactive)	> 100 µM (inactive)	> 100 µM (inactive)	> 100 µM (inactive)	–	> 100 µM (inactive)	> 100 µM (inactive)	> 100 µM (inactive)	> 100 µM (inactive)	> 100 µM (inactive)	–	> 100 µM (inactive)	> 100 µM (inactive)	–	44 µM (inactive)	> 100 µM (inactive)	> 100 µM (inactive)	> 100 µM (inactive)	–	> 100 µM (inactive)
O=C(CC(=O)c1ccccc1NC1=Cc2ccccc2C(=O)C1=O)C(=O)NC1=C(Cl)C(=O)c2ccccc2C1=O	4.55 µM (inactive)	14.8 µM (inactive)	2.38 µM (inactive)	2.34 µM (inactive)	5.71 µM (inactive)	7.98 µM (inactive)	4.79 µM (inactive)	5.26 µM (inactive)	5.79 µM (inactive)	0.225 µM (active)	1.75 µM (inactive)	3.04 µM (inactive)	5.98 µM (inactive)	2.23 µM (inactive)	2.34 µM (inactive)	2.47 µM (inactive)	1.8 µM (inactive)	1.69 µM (inactive)	10.9 µM (inactive)	3.04 µM (inactive)
COC1OCC(O)C(NC(=O)N(C)N=O)C1O (stereo not drawn)	> 100 µM (inactive)	> 100 µM (inactive)	> 100 µM (inactive)	> 100 µM (inactive)	–	> 100 µM (inactive)	> 100 µM (inactive)	> 100 µM (inactive)	> 100 µM (inactive)	> 100 µM (inactive)	–	> 100 µM (inactive)	> 100 µM (inactive)	–	> 100 µM (inactive)	> 100 µM (inactive)	> 100 µM (inactive)	> 100 µM (inactive)	–	> 100 µM (inactive)
